{"source": "patent US20120157396A1", "about": "“PYRAZINAMIDE FOR IMMUNOSTIMULATION AND THE TREATMENT OF LEISHMANIASES” (priority 2009, published 2012)", "key": {"L. major promastigotes": {"test_system": "L. major promastigotes", "assay": "L. major promastigote drug treatment, parasite survival after 48 h", "assay_type": "cell-based", "details": "48 h, promastigote", "experimental": "The effect of PZA was first investigated with promastigotes of L. major. PZA was diluted in medium and added to cultures. After 48 h, parasite multiplication was determined by counting parasites in culture. […] Incubation of L. major with 1 μg/ml amphotericin B (as a positive control) caused 100% mortality of promastigotes and 90% of amastigotes.\nMid-log phase (day 3 of culture) L. major promastigotes were employed. Parasite concentration was adjusted to 10^6 promastigotes/ml and seeded into 96-well plates in a volume of 100 μl (final concentration, 10^5 promastigotes/well). PZA was tested in triplicate in a concentration gradient from 1,000-0.5 μg/ml and added to the wells containing the parasite in a volume of 100 μl. A negative control was included with three wells containing only parasites and medium. The positive control consisted of amphotericin B (1 μg/ml). This concentration was previously employed by us because this concentration is equivalent to drug concentrations achieved in human plasma. After 48 h of incubation at 26° C., 10 μL of each well was diluted in 90 μL of the vital colorant (trypan blue in PBS) and the parasites were quantified in a Neubauer chamber. Data was normalized as percentage of survival compared to untreated controls. The Lethal Dose 50 (LD50) was extrapolated from the graph as the concentration of the products that inhibited the parasitic growth at 50% of the values of the negative control."}, "uninfected J774 cells": {"test_system": "uninfected J774 cells", "assay_type": "cell-based", "details": "48 h; for percentage of survival compared to untreated control: mouse", "experimental": "The potential cytotoxicity of PZA toward the mammalian cell line was determined by co-incubation of PZA with uninfected J774 cells for 48 h (10^4 cells/well) in 96-well culture plates. […] At 200 μg/ml, the compound started to show signs of toxicity, resulting in mortality of 25% of the cell monolayer. […] The control drug amphotericin B caused 5% mortality of the cell monolayer at the concentration tested (1 μg/ml).\nJ774 cell viability following incubation with PZA was also determined. Cells were seeded onto 8-well Labtek chambers as above and incubated with different concentrations of PZA (up to 1 mg/ml) for 48 h, stained with Diff-Quick and counted under light microscope. The percentage of viable cells was determined after quantifying the number of cells present per field (in 25 fields, ca. 500 cells). Percentage of survival and MIC50 were calculated as above."}, "L. donovani": {"test_system": "L. donovani", "experimental": "To induce visceral leishmaniasis, we inoculated mice (n=8) intravenously with 5×10^6 L. donovani 1S and treated them with PZA (900-150 mg/kg) for 3 wks, 5 days/wk. The lowest dose was equivalent to dose of PZA used in humans (2 g/day). A group of mice treated with vehicle (3.8% DMSO in water) was included as a control. C57BL/6 mice infected with L. donovani typically show detectable parasites in liver and spleens for 8-12 wk. […] We euthanized mice 3 wks after the initiation of the experiment and determined total body weight, liver and spleen weights, and number of parasites in livers."}, "[1]": {"test_system": "dendritic cells lacking TLR-2 and -4", "assay": "Activation of bone marrow-derived dendritic cells from TLR-2/-4 double knock out mice", "assay_type": "cell-based", "experimental": "FIG. 11. A. The immunostimulatory effect of PZA is independent of TLR engagement. Mean fluorescence values for the expression of CD80, CD86, MHC Class I and MHC Class II and B. IL-12, IL-10 and iNOS expression determined by flow cytometry in bone marrow-derived dendritic cells from TLR-2/-4 double knock out mice, infected or not with L. major, and treated with 10 and 100 μM PZA. Uninfected cells were treated with 10 U IFN-γ/100 ng/ml LPS as a positive control of activation. Unstimulated, untreated cells are also shown. Data are expressed as mean±standard deviation of n=3 determinations. *: Statistically significant P≦0.03; **: Statistically significant P≦0.005; ***: Statistically significant, P≦0.0001 when compared to the group infected with L. major and untreated.\nIn this experiment, we treated the dendritic cells as described above, in the presence or absence of L. major infection. Again as a positive control, cells were primed with IFN-γ and LPS. […] In the same way, the expression of IL-12, IL-10 and iNOS was increased in treated cells, irrespective of infection (FIG. 11B)."}, "splenocytes": {"test_system": "splenocytes", "assay": "Lymphoproliferative response of splenocytes from L. donovani-infected treated mice", "assay_type": "cell-based, C57BL/6 mice", "details": "PZA-treated mice, dose dependent", "experimental": "FIG. 5. PZA increases proliferation in treated splenocytes. Positive proliferation (measured as loss of CFSE staining at day 5) at 3 wk post infection in CFSE-stained splenocytes from C75BL/6 mice infected with L. donovani and treated with drug vehicle (3.8% DMSO, control) or increasing concentrations of PZA (n=3±SD), following in vitro restimulation with 25 μg/ml leishmanial antigen or 2 μg/ml concanavalin A.\nVL typically induces T cell anergy toward leishmanial antigens."}, "[2]": {"details": "mouse models of VL (FIG. 8 legend)"}}, "note": "“And” between values parts separate entries of the source, which are not always exact repeats. Equal values may be shown once. Read-outs that look alike come from different tables or passages of the source.", "data": [{"smiles": "NC(=O)c1cnccn1", "note": "[PZA, pyrazinamide]", "values": [{"measurement": "MIC50", "setting": "L. major promastigotes; Leishmania major", "result": "10 µM and 16.2 µg/mL"}, {"measurement": "percentage of survival compared to untreated control", "setting": "L. major promastigotes; PZA 1 μg/ml", "result": "88 ± 18", "unit": "%"}, {"measurement": "percentage of survival compared to untreated control", "setting": "L. major promastigotes; PZA 12.5 μg/ml", "result": "50 ± 18", "unit": "%"}, {"measurement": "percentage of survival compared to untreated control", "setting": "L. major promastigotes; PZA 50 μg/ml", "result": "38 ± 14", "unit": "%"}, {"measurement": "percentage of survival compared to untreated control", "setting": "L. major promastigotes; PZA 200 μg/ml", "result": "20 ± 10", "unit": "%"}, {"measurement": "percentage of survival compared to untreated control", "setting": "L. major promastigotes; PZA 1000 μg/ml", "result": "10 ± 12", "unit": "%"}, {"measurement": "mortality of the cell monolayer", "setting": "uninfected J774 cells; PZA 200 μg/ml", "result": 25, "unit": "%"}, {"measurement": "mortality of the macrophages", "setting": "uninfected J774 cells; PZA 1 mg/ml", "result": 100, "unit": "%"}, {"measurement": "percentage of survival compared to untreated control", "setting": "uninfected J774 cells; 1 μg/ml", "result": "100 ± 11", "unit": "%"}, {"measurement": "percentage of survival compared to untreated control", "setting": "uninfected J774 cells; 12.5 μg/ml", "result": "100 ± 10", "unit": "%"}, {"measurement": "percentage of survival compared to untreated control", "setting": "uninfected J774 cells; 50 μg/ml", "result": "100 ± 12", "unit": "%"}, {"measurement": "percentage of survival compared to untreated control", "setting": "uninfected J774 cells; 100 μg/ml", "result": "100 ± 15", "unit": "%"}, {"measurement": "percentage of survival compared to untreated control", "setting": "uninfected J774 cells; 200 μg/ml", "result": "85 ± 12", "unit": "%"}, {"measurement": "percentage of survival compared to untreated control", "setting": "uninfected J774 cells; 1000 μg/ml", "result": 0, "unit": "%"}, {"measurement": "size of livers and spleens", "setting": "L. donovani; PZA 900-150 mg/kg, 3 wks", "result": "significantly reduced"}, {"measurement": "liver parasites", "setting": "L. donovani; PZA at all doses tested (900-150 mg/kg), 3 wks", "result": "significantly decreased"}, {"measurement": "hepatomegaly and splenomegaly", "setting": "L. donovani; [2]", "result": "prevented hepatomegaly and splenomegaly"}, {"measurement": "reduction of liver parasites", "setting": "L. donovani; [2]", "result": "2-4 log 10"}, {"measurement": "expression of activation markers and MHC Class molecules", "setting": "[1]; 10 and 100 μM PZA, dose-dependent, TLR-2/-4 double knock out dendritic cells", "result": "increased expression of activation markers and MHC Class molecules"}, {"measurement": "expression of IL-12, IL-10 and iNOS", "setting": "[1]; PZA-treated cells, irrespective of infection", "result": "increased"}, {"measurement": "proliferation of splenocytes to leishmanial antigens and concanavalin A", "setting": "splenocytes", "result": "recovered their ability to proliferate"}]}]}
